Columns and labels:
[1] = tested on: paw edema in mice induced by carragenin; experiment: Test of paw edema in mice induced by carragenin (paw volume); type: in vivo, male Swiss albino mice; settings: 70 mg/kg intraperitoneally 1 h before intradermal carragenin; significant at 1 h (p<0.025), 5 h (p<0.005), 24 h (p<0.0005)
Description: The anti-inflammatory capacity of the product of Formula (I), wherein R is a potassium cation, was tested: [drawing 3] in male Swiss albino mice of 8 to 10 weeks of age (38-44 g), from the Servicio de Animales de Laboratorio (Laboratory Animals Department) of the University of Murcia. The animals were maintained under standard conditions (temperature of 22±2° C., humidity 60±4% and light/dark cycle of 12 hours) with food and drink ad libitum. The animals were anesthetized with ether in the moment of inducing inflammation and during the measurements of the volume of the paw. Test of Paw Edema in Mice Induced by Carragenin
The inflammation was caused by intradermal injection of 0.05 ml of 1% Lambda Carrageenan (Sigma-Aldrich, Madrid, Spain) in saline solution in the plantar pad of the right hind paw. The measurement of the edema was carried out with a digital calibrator (Proinsa, Vitoria, Spain), measuring the 3 largest diameters of the paw for the volume calculation. The measurements were carried out in triplicate. The volume of the paw was measured immediately before (0 hours) and at 1, 5 and 24 hours after causing inflammation. The compound of Formula (I) was dissolved in sterile saline solution and intraperitoneally administered (70 mg/kg) 1 h before causing inflammation. […] Groups of 10 animals were used. […]

[2] = tested on: paw edema in mice induced by carragenin; experiment: Microscopic study and assessment of the injected plantar pad (edema, inflammatory infiltrate, degree 0-3); type: in vivo, male Swiss albino mice; settings: treated group, 24 hours post-inoculation, 70 mg/kg i.p.
Description: The plantar pad area injected was extirpated at 24 hours post-inoculation; fixed in 10% buffered neutral formaldehyde, included in paraffin by the standard method, sectioned at 3 μm and stained with hematoxilin-eosin for its optical study which was carried out by two observers. The presence of edema and polynuclear neutrophils and monocytes was measured, being assessed as 0 (absence), 1 (slight), 2 (moderate) and 3 (intense) (FIGS. 3 to 6b).

Structure (SMILES): O=c1cc(-c2ccc(O)cc2)oc2cc(O)cc(O)c12 [2,3-DHNA, 2,3-dehydronaringenin]
- Increases in the volume of inoculated paw, treated group vs control group [1]: lower in the treated group than in the control group
- samples with moderate inflammation (degree 2) [2]: 13.3%
- samples with neither edema nor inflammatory infiltrate (degree 0) [2]: 60%
- samples with slight inflammation (degree 1) [2]: 26.65%

— patent publication US20060020021A1, “Use of compounds derived from 2,3-dehydronaringenin for the treatment of inflammatory processes and pharmaceutical composition containing said derivatives” (FURFURAL ESPANOL, S.A., priority 2004, published 2006)
